Tests used:
[1] = tested on: adverse events; test: Clinical trials: tolerability, adverse events and suspensions of treatment; set-up: species or system man; settings: in vivo
From the text: Interest in the amtolmetin guacyl molecule arose following a thorough analysis of the results of 31 comparative and 6 non-comparative clinical trials involving 1596 patients. […] Turthermore the physician, being aware of administering an NSAID, was expecting adverse events and could not be expected to be an impartial observer. The few cases of gastro-intestinal phenomena reported with amtolmetin guacyl were transitory and in no event accompanied by the presence of occult blood in the stools. Moreover, even in the presence of a reported side-effect it was almost never necessary to suspend treatment (0.4% of suspensions).
Following are summarized the results obtained on a total of 1596 patients in 37 clinical trials.
Confirmation of the above described advantages is the very low incidence of treatment suspension for adverse events found in clinics (Table 17), which is not the case for most of NSAIDs known in the art (Table 18).

[2] = molecular target: T1, COX1 (cyclooxygenase 1) (Rattus norvegicus, UniProt Q63921); test: Pharmacological studies in rats: COX1 inhibition; assay type: in vivo; settings: studies conducted in rats
T1 construct: from tissue; host or cells: rat (in vivo pharmacological studies; tissue not given)

[3] = tested on: fertility, embriotoxicity and teratogenicity; test: Fertility, embryotoxicity and teratogenicity studies, rabbit; assay type: in vivo
[4] = tested on: osteoarthritis; test: Clinical trials: antiphlogistic activity in osteoarthritis; assay type: in vivo, man; set-up: key to Antiphlogistic activity evaluation: excellent ^++++; good ^+++; poor ^++
From the text: In this degenerative disease amtolmetin guacyl was compared with diclofenac, diflunisal, flurbiprofen, ibuprofen, ketoprofen, naproxen and tolmetin.

[5] = tested on: basal acid secretion; test: Basal acid secretion; settings: amtolmetin guacyl per se
[6] = tested on: rat isolated stomach strips; test: Gastric motility in isolated stomach strips, acetylcholine and serotonin as agonists; settings: acetilcholine and serotonin as agonists (fig. 10, 11 and 12)
[7] = tested on: Adjuvant arthritis; test: Adjuvant arthritis: joint inflammation and patellar bone erosion; assay type: in vivo, rats; settings: patellar bone mass; MED 15 25, 50, 100mg/kg, piroxicam 3mg/kg
Procedure: The drugs were administered daily by oral gavage for 4 days (day 0-3); piroxicam and MED 15 were dissolved in 5% Gum arabic + 0.01% Tween 80, and administered in a volume of 0.5ml. Piroxicam was administered as 3mg/kg and MED 15 was administered as 25, 50 and 100mg/kg doses. Table 8 bis illustrating dosage regimes. L=left stifle joint, R=Right stifle joint.
Under halothane anaesthesia, rats received 200µg of heat-killed finely ground Mycobactyerium tubercolosis in 25µl (80mg/10ml sterile saline) injected intra-articulary into the left stifle joint. The contralateral joint received 25µl 0.9% sterile saline. Control animals received 25µl of 0.9% sterile saline in both knees. SGE 50µl microsyringes with a volume lock calibrated at 25µl were used with 30G stainless steel needles. Solutions were prepared sterile, and aseptic technique was used throughout, with sterilisation of syringes between groups.
The rats were killed by carbon dioxide suffocation. The body weight was noted and the skin overlying the stifle joints was divided and the joint diameters assessed in mm using Mitutoyo vernier callipers (530-312, 0.02mm).
The patellae were dissected, weighed (Sartorius, 0.01mg) and then immersed in 1ml digestion buffer (see below) to remove soft tissue.
Digestive buffer was prepared fresh to the following formula; disodium hydrogen orthophosphate 20mM, EDTA 1mM and diothiothreitol at 2mM. […]

[8] = tested on: post-traumatic arthralgia; test: Clinical trials: analgesic properties in post-traumatic arthralgia; assay type: in vivo, man; settings: Amtolmetin guacyl 600mgx2-daily, Diclofenac 50mgx2-daily, 15 patients each
From the text: The same can be said in the treatment of post-traumatic arthralgia.

[9] = tested on: blood pressure and cardiovascular system; test: Drug safety trials on blood pressure and cardiovascular system; settings: rat, in vivo
From the text: From a toxicological viewpoint the drug offers an excellent torability profile.

[10] = tested on: rat bone marrow; test: Micronucleus test; assay type: in vivo
[11] = molecular target: T2, COX2 (cyclooxygenase 2) (Rattus norvegicus, UniProt P35355); test: Pharmacological studies in rats: COX2 inhibition; assay type: in vivo; settings: studies conducted in rats
T2 construct: from tissue; host or cells: rat (in vivo pharmacological studies; tissue not given)

[12] = tested on: CGRP (calcitonin gene related peptide); test: Peptone-stimulated gastric acid secretion after treatment with CGRP8-37; assay type: in vivo, rat; settings: peptone-stimulated gastric acid secretion (fig. 14)
[13] = tested on: gastric acid secretion; test: Antisecretory activity in vivo in rat, histamine-induced acid secretion
Procedure: The methods used were those described by G Coruzzi, M. Adami, C. Pozzoli, E. Poli, G. Bertaccini (Pharmacology 1994;48: pages 69-76) and M. Leitold, W. Fleissig and A. Merk (Arzneim-Forsch/Drug Res. 34(I), Nr. 4, 1984).
The animals were treated in oral administration with amtolmetin guacyl 50 or 100 mg/kg, 1 h before the beginning of the perfusion with histamine. The controls received only the vehicle (CMC 1%).
After anaesthesia with urethan (1.25 g/kg i.p.), the oesophagus was ligated close to the stomach. Two cannulas of polyethylene are then inserted: one was inserted in the forestomach, the second one was inserted directly into the pyloric sphincter. The stomach was flushed with saline at 37°C (1 ml/min) and the flushed liquid, collected every 15 minutes, titred at ph 7 with NaOH 10^-2 M. The acid secretion was induced by an intravenous infusion (0.1 ml/min) of histamine (30 µmol/kg/h).
The acidity is expressed as µEqH^+/15 min.

[14] = tested on: Carcinogenesis; test: Carcinogenesis studies, gavage over life-span; assay type: in vivo, rat; settings: gavage for a period covering the animal's life-span

T2 sequence (P35355 18-604): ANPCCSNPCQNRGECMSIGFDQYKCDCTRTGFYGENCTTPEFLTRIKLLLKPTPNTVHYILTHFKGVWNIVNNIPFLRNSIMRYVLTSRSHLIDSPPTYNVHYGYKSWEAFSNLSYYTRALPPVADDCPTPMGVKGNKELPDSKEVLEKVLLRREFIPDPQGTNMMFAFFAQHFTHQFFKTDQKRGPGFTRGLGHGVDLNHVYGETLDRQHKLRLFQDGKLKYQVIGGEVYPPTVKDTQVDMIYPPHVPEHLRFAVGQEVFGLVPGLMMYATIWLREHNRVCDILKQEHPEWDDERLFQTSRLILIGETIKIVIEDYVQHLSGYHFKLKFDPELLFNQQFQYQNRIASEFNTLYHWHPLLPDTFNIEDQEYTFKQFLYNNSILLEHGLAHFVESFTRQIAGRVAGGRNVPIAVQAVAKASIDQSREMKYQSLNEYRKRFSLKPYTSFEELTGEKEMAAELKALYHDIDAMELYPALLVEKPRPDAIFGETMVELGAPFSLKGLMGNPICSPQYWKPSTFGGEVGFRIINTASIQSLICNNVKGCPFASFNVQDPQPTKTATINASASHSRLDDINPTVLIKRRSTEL
T1 sequence (Q63921 27-602): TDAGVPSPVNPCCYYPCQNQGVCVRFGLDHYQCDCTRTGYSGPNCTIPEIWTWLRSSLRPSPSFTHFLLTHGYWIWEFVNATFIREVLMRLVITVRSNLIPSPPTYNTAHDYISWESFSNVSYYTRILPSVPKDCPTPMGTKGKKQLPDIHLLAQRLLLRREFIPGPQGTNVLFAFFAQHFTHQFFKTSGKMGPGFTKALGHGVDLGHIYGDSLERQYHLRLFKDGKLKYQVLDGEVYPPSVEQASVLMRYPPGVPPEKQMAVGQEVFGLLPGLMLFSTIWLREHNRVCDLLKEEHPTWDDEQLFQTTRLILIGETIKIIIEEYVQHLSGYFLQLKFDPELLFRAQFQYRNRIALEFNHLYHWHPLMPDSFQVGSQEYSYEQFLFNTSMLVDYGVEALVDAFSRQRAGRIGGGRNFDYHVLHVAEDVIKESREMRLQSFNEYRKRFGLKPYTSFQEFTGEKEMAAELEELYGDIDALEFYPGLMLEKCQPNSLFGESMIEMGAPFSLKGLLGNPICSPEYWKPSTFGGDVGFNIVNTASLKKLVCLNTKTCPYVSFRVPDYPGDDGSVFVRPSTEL

In the case of COc1ccccc1OC(=O)CNC(=O)Cc1ccc(C(=O)c2ccc(C)cc2)n1C [amtolmetin guacyl, 2-methoxyphenyl-1-methyl-5p-methylbenzoylpyrrol-2-acetamido acetate], the Treatment suspended % ([1]; human) was 0,4%, the suspensions of treatment ([1]; human) was 0.4% and the “variations of the routine biological parameters” value [1] was “no significant variations of the routine biological parameters were observed”. For the same molecule, the “inhibition of COX1” value [2] was “inhibition”, the “fertility, embriotoxicity and teratogenicity” value [3] was “demonstrated the safety product” and the “Evaluation of antiphlogistic activity” value ([4]; 550 patients, mean 80 days, versus Diclofenac, Diflunisal, Flurbiprofen, Ibuprofen, Ketoprofen, Naproxen, Tolmetin) was “Amtolmetin guacyl was more rapid and more active in a statistically significant manner in osteoarthritis compared to the reference NSAIDs”. The Antiphlogistic activity evaluation ([4]; Osteoarthritis) was “^++++”, the “effect on basal acid secretion” value [5] was “fails to modify basal acid secretion” and the gastric motility [6] was “clear evidence of down-regulation of motility”. The “protection against bone loss” value [7] was “dose dependent protective effect”, the “Duration” value [8] was 360 min and the “Latency” value [8] was 20 min. For the same molecule, the “Max. time effect” value [8] was 60 min, the “effects on blood pressure and on the cardiovascular system” value [9] was “absence of effects on blood pressure and on the cardiovascular system” and the micronucleus test [10] was “absence of amtolmetin guacyl-related damage”. For the same molecule, the “inhibition of COX2” value [11] was “inhibition”, the “effect of the CGRP antagonist CGRP8-37 on the activity on gastric secretion” value [12] was “blockage of the amtolmetin guacyl - related activity on gastric secretion” and the acidity ([13]; 50 mg/kg oral 1 h before histamine perfusion, time 0 min) was 4 µEqH^+/15'. It also gave an acidity ([13]; 50 mg/kg oral 1 h before histamine perfusion, time 15 min) of 4 µEqH^+/15', an acidity ([13]; 50 mg/kg oral 1 h before histamine perfusion, time 30 min) of 5 µEqH^+/15' and an acidity ([13]; 50 mg/kg oral 1 h before histamine perfusion, time 45 min) of 11 µEqH^+/15'. For the same molecule, the acidity ([13]; 50 mg/kg oral 1 h before histamine perfusion, time 60 min) was 15 µEqH^+/15', the acidity ([13]; 50 mg/kg oral 1 h before histamine perfusion, time 75 min) was 17 µEqH^+/15' and the acidity ([13]; 50 mg/kg oral 1 h before histamine perfusion, time 90 min) was 19 µEqH^+/15'. The acidity ([13]; 50 mg/kg oral 1 h before histamine perfusion, time 105 min) was 18.5 µEqH^+/15', the acidity ([13]; 50 mg/kg oral 1 h before histamine perfusion, time 120 min) was 22 µEqH^+/15' and the acidity ([13]; 50 mg/kg oral 1 h before histamine perfusion, time 135 min) was 20 µEqH^+/15'. For the same molecule, the acidity ([13]; 100 mg/kg oral 1 h before histamine perfusion, time 0 min) was 8 µEqH^+/15', the acidity ([13]; 100 mg/kg oral 1 h before histamine perfusion, time 15 min) was 7 µEqH^+/15' and the acidity ([13]; 100 mg/kg oral 1 h before histamine perfusion, time 30 min) was 9 µEqH^+/15'. The acidity ([13]; 100 mg/kg oral 1 h before histamine perfusion, time 45 min) was 11 µEqH^+/15', the acidity ([13]; 100 mg/kg oral 1 h before histamine perfusion, time 60 min) was 12 µEqH^+/15' and the acidity ([13]; 100 mg/kg oral 1 h before histamine perfusion, time 75 min) was 13 µEqH^+/15'. For the same molecule, the acidity ([13]; 100 mg/kg oral 1 h before histamine perfusion, time 90 min) was 14 µEqH^+/15', the acidity ([13]; 100 mg/kg oral 1 h before histamine perfusion, time 105 min) was 15 µEqH^+/15' and the acidity ([13]; 100 mg/kg oral 1 h before histamine perfusion, time 120 min) was 13 µEqH^+/15'. For the same molecule, the acidity ([13]; 100 mg/kg oral 1 h before histamine perfusion, time 135 min) was 14 µEqH^+/15' and the Carcinogenesis [14] was “innocuity of the product”.
